B1: MMP-2: matrix metalloproteinase (R&D Systems), activated (protein, UniProt P08253 110-660, looked up)
72 kDa type IV collagenase: YNFFPRKPKWDKNQITYRIIGYTPDLDPETVDDAFARAFQVWSDVTPLRFSRIHDGEADIMINFGRWEHGDGYPFDGKDGLLAHAFAPGTGVGGDSHFDDDELWTLGEGQVVRVKYGNADGEYCKFPFLFNGKEYNSCTDTGRSDGFLWCSTTYNFEKDGKYGFCPHEALFTMGGNAEGQPCKFPFRFQGTSYDSCTTEGRTDGYRWCGTTEDYDRDKKYGFCPETAMSTVGGNSEGAPCVFPFTFLGNKYESCTSAGRSDGKMWCATTANYDDDRKWGFCPDQGYSLFLVAAHEFGHAMGLEHSQDPGALMAPIYTYTKNFRLSQDDIKGIQELYGASPDIDLGTGPTPTLGPVTPEICKQDIVFDGIAQIRGEIFFFKDRFIWRTVTPRDKPMGPLLVATFWPELPEKIDAVYEAPQEEKAVFFAGNEYWIYSASTLERGYPKPLTSLGLPPDVQRVDAAFNWSKNKKTYIFAGDKFWRYNEVKKKMDPGFPKLIADAWNAIPDNLDAVVDLQGGGHSYFFKGAYYLKLENQSLKSVKFGSIKSDWLGC
modifications: activated

Key:
Assay type in all cases: cell-based, human
PBMC from healthy donors = test: IL-2 induced proliferation of PBMC in the presence of collagen/collagen fragments; conditions: collagen 26 ug/ml, PBMCs from healthy donors, autologous serum
Protocol: 100 μl of RPMI1640 supplemented with 200 IU/ml penicillin, […] streptomycin, 4 mM L-glutamine (all from Sigma Chemical Co. MO, US) and 20% heat-inactivated human serum (autologous or from cancer patients) were added to uncoated, HSA or HSA/IgG coated tissue culture microtiter plates. PBMC, isolated from healthy individuals or patients with metastatic renal cell carcinoma, were diluted in RPMI/2%1-ISA at a concentration of 5×10^5/ml and 100 μl were added to the microtiter wells. Interleukin-2 (IL-2, Proleukin, Chiron, NL), at a final concentration of 120 IU/well, was added to some wells. Cells were cultured for 7 days in a humidified, 5% CO2-atmosphere at 37° C.
Proliferation was assayed by incorporation of 1.6 μCi/well of [3H]-thymidine (Amersham Int., UK) during the last 18 hrs. Mean values of dpm (disintegrations per minute) of triplicates were used for the calculations.
Purified collagen from human skin (Sigma) at a concentration of 100 µg/ml was incubated in 100 mM Tris-HCl, pH 7.6, containing 0.15 M NaCl, 10 mM CaCl2 and 0.05% Brij35 over night at 37° C. The buffer was then exchanged to RPMI1640 by gel filtration through a Sephadex-G25 (PD-10) column (Amersham Biosciences) and filtered through a 0.45 μm Millex-HV syringe filter (Millipore) and frozen at −70° C. until use. […]

[1] = system: PBMC from healthy volunteers; test: Inhibition of IL-1Ra production by PBMC with Tosyl
Protocol: Monokines were assessed by ELISA using the DuoSet ELISA development system for human IL-6, TNF-α or IL-1β (R&D Systems Europe, Ltd. UK) following the manufacturer's recommended procedures. Lower limit of detection was […] for IL-6, […] for TNF-α and […] for IL-1β. IL-10 was detected with a kit from Diaclone Research, FR. The lower limit of detection was […]. Human IL-1Ra was detected with a quantitative sandwich ELISA using a monoclonal mouse anti-human IL-1Ra as capture antibody and a biotinylated goat anti-human IL-1Ra as developing antibody (both from R&D Systems). […] Following incubation for 1 hr at room temperature, plates were washed and the amount of bound IL-1Ra was measured by hydrolysis of paranitrophenyl phosphate (Sigma). Optical density was read at dual wavelengths, 405 nm and 570 nm, respectively, in a Multiscan EX microplate reader (Labsystems). […]
Inhibition of IL-1Ra production by PBMC with Tosyl PBMC (2×10^6/ml) from healthy volunteers were pre-incubated with various concentrations of Na-p-Tosyl-L-lysine chloromethyl ketone (Tosyl, Sigma) diluted in RPMI1640/2% HSA for 30 minutes at 37° C. after which the cell suspensions were washed three times in RPMI/2% HSA. […] Viability of cultured PBMCs were also assessed after 24 hrs by Trypan blue exclusion and found to be 100%. […]

PBMC from RCC patients = test: TNF-α in PHA stimulated PBMC cultures with chlorambucil; conditions: chlorambucil 1 μg/ml, 72 hours, responders vs non-responders to interleukin-2
Protocol: PHA stimulated proliferation of PBMC with and without chlorambucil Venous blood was drawn at the indicated time points from RCC patients undergoing IL-2 (Proleukin, Chiron, NL) therapy. Mononuclear cells were isolated by Ficoll-Isopaque (Pharmacia, SE) density gradient centrifugation. 5×10^4 PBMC in a final volume of 200 μl were seeded into round-bottomed microtiter plates (Corning Inc. NY, US) in culture medium consisting of RPMI 1640 supplemented with 100 IU/ml Penicillin, 100 μg/ml Streptomycin (Flow laboratories) and 10% heat-inactivated, autologous fresh serum. […]
PHA-stimulated cultures with or without chlorambucil (1 µg/ml) were set up in parallel as described above for mitogen-stimulated cultures. […] The amount of TNF-α in the SNs was evaluated with an ELISA kit from Immunotech S.A., FR, according to the manufacturer's instructions. […]
Comparisons between the proliferative response to PHA in different groups or at different test occasions were done on logarithmated mean values of dpm of triplicates using unpaired t-test. For the determination of the effect of addition of CHL on the proliferative response of PHA-stimulated PBMCs, a modulation index (MI) was calculated according to the following formula: MI=log(dpm PHA+drug/dpm PHA).

normal PBMCs [2] = test: Fragmentation of IgG and serum albumin using MMPs, IL-6 inducing activity of supernatants; conditions: supernatants tested on normal PBMCs; for release of fragments inducing or modulating IL-6 production from albumin: serum albumin incubated with MMP; for release of fragments inducing or modulating IL-6 production from IgG: IgG incubated with MMP
Protocol: MMP-1, -2, -13 (R&D Systems) and MMP-3 and -7 (Chemicon, UK) were activated according to instructions of the manufacturer. […] The mixtures were incubated for 5-20 hours at 37° C. Parallel incubations of MMP or the substrates alone, in respective buffer, were set up as controls. The mixtures were buffer exchanged to RPMI as described previously and filtered through a 0.45 μm Millex-HV syringe filter (Millipore, MA, US). Storing of mixtures, when needed, was performed at −70° C. until analysing by gel-electrophoresis and testing for monokine inducing activity in fresh, normal PBMC as described above.

normal PBMCs [3] = test: Homogenised, washed tumour tissue incubated with MMP-2, IL-6 inducing activity; conditions: MMP-2 5 ng/ml; 20 hours at 37° C.
Protocol: The collection, washing and homogenisation of tumour cryo sections (3×300 μm) were carried out as described above. The pelleted tumour tissue was suspended in 0.5 ml cold RPMI/PEST. MMP-2 (R&D Systems, UK), activated according to instructions from the manufacturer, was added at a final concentration of 5 ng/ml. The tumour tissue suspension was incubated with MMP-2 for 20 h at 37° C. and the supernatant collected after centrifugation. Parallel incubation of tumour tissue with no addition of MMP-2 was set up as a control. The mixtures were buffer exchanged to RPMI by gel filtration through a Sephadex-G25 (PD-10) column (Amersham Biosciences, SE) and filtered through a 0.45 μm Millex-HV syringe filter (Millipore, MA, US). Finally, the mixtures were analysed by gel-electrophoresis and tested for monokine inducing activity in fresh normal PBMC as described above.

Molecule | release of fragments inducing or modulating IL-6 production from albumin (normal PBMCs [2]) | release of fragments inducing or modulating IL-6 production from IgG (normal PBMCs [2]) | also measured
collagen |  |  | effect on IL-2 induced proliferation (PBMC from healthy donors): strongly inhibitory effect; effect on IL-2 induced proliferation (PBMC from healthy donors; listed as collagen/collagen fragments): strong inhibitory effect was demonstrated in two out of three experiments
Cc1ccc(S(=O)(=O)NC(CCCCN)C(=O)CCl)cc1 [Tosyl, Na-p-Tosyl-L-lysine chloromethyl ketone] |  |  | Viability of cultured PBMCs by Trypan blue exclusion ([1]; after 24 hrs, PBMC pre-incubated with Tosyl): 100%; effect on production of IL1Ra ([1]; non-toxic concentrations, PBMC from healthy individuals (n=9), plates pre-coated with HSA or HSA/IgG): significantly reduced production
O=C(O)CCCc1ccc(N(CCCl)CCCl)cc1 [chlorambucil, Chlorambucil] |  |  | TNF-α production in PHA stimulated cultures with chlorambucil (PBMC from RCC patients): in non-responders TNF-α production is more stimulated than in responders
MMP-1: matrix metalloproteinase (R&D Systems), activated | released active fragments |  | 
MMP-3: matrix metalloproteinase (Chemicon), activated | released active fragments | released active fragments | 
MMP-7: matrix metalloproteinase (Chemicon), activated |  | released active fragments | 
B1 | released active fragments | released active fragments | release of IL-6 inducing activity from washed tumour tissue (normal PBMCs [3]): modulated the release of IL-6 inducing activity
